Test results taken from US20060178323A1, “Methods for the treatment of chronic pain and compositions therefor” (priority 2002, published 2006).

Assays:
Format in all cases: in vivo
[1] = test system: mechanical hyperalgesia in the Seltzer model of neuropathic pain in the rat; assay: Seltzer model, development of mechanical hyperalgesia, repeated administration of Compound A
Source text: (§1) Two animal models of chronic neuropathic pain may be used that involve some form of peripheral nerve damage. In the Seltzer model (Seltzer et al. (1990) Pain 43: 205-218) rats are anaesthetised and a small incision made mid-way up one thigh (usually the left) to expose the sciatic nerve. The nerve is carefully cleared of surrounding connective tissues at a site near the trochanter just distal to the point at which the posterior biceps semitendinosus nerve branches off the common sciatic nerve. A 7-0 silk suture is inserted into the nerve with a ⅜ curved, reversed-cutting mini-needle, and tightly ligated so that the dorsal ⅓ to ½ of the nerve thickness is held within the ligature. The muscle and skin are closed with sutures and clips and the wound dusted with antibiotic powder. In sham animals the sciatic nerve is exposed but not ligated and the wound closed as in nonsham animals.
(§2) In all chronic pain models (inflammatory and neuropathic) mechanical hyperalgesia is assessed by measuring paw withdrawal thresholds of both hindpaws to an increasing pressure stimulus using an Analgesymeter (Ugo-Basile, Milan). Mechanical allodynia is assessed by measuring withdrawal thresholds to non-noxious mechanical stimuli applied with von Frey hairs to the plantar surface of both hindpaws. Thermal hyperalgesia is assessed by measuring withdrawal latencies to a noxious thermal stimulus applied to the underside of each hindpaw. With all models, mechanical hyperalgesia and allodynia and thermal hyperalgesia develop within 1-3 days following surgery and persist for at least 50 days. For the assays described herein, drugs may be applied before and after surgery to assess their effect on the development of hyperalgesia, particularly approximately 14 days following surgery, to determine their ability to reverse established hyperalgesia.
(§3) The percentage reversal of hyperalgesia is calculated as follows: [formula] In the experiments disclosed herein, Wistar rats (male) are employed in pain models described above. Rats weigh approximately 120-140 grams at the time of surgery. All surgery is performed under enflurane/O2 inhalation anaesthesia. In all cases the wound is closed after the procedure and the animal allowed to recover. In all pain models employed, after a few days in all but the sham operated animals, a marked mechanical and thermal hyperalgesia and allodynia develops in which there is a lowering of pain threshold and an enhanced reflex withdrawal response of the hind-paw to touch, pressure or thermal stimuli. […] In the majority of animals the toes of the affected hind paw are held together and the foot turned slightly to one side; in some rats the toes are also curled under. The gait of the ligated rats varies, but limping is uncommon. […] The rats tend to be very sensitive to touch and may vocalise. Otherwise the general health an condition of the rats is good.
(§4) The effect of Compound A on mechanical hyperalgesia and allodynia is examined in the Seltzer model of neuropathic pain in the rat (Seltzer et al, 1990) as described above. With this model mechanical hyperalgesia and allodynia is induced in the ipsilateral (ligated) hindpaw approximately 1 day following surgery and persists for some weeks. Mechanical hyperalgesia is assessed by measuring paw withdrawal thresholds of both hindpaws to an increasing pressure stimulus using an Analgesymeter (Ugo-Basile, Milan). Mechanical allodynia is assessed by measuring withdrawal thresholds to non-noxious mechanical stimuli applied with von Frey hairs to the plantar surface of both hindpaws.
Experimental Protocol: The effect of Compound A on the development of mechanical hyperalgesia is tested by administering the compound or vehicle (20% cremaphor/water) orally twice daily for 7 days starting on the day of surgery. Prior to surgery paw withdrawal thresholds of ipsilateral (ligated) and contralateral (non-ligated) paws are approximately 100 g. […]

[2] = test system: mechanical hyperalgesia in the Seltzer model of neuropathic pain in the rat; assay: Seltzer model, perioperative administration of Compound A on neuropathic hyperalgesia; conditions: for Paw withdrawal threshold: ipsilateral paw
Source text: as §1, §2, §3, §4
Compound A also affects the development of hyperalgesia following peri-operative dosing. […] The effect of the two doses of Compound A lasted for approximately 7 days by which time the degreee of hyperalgesia is similar to that seen in vehicle treated animals.
All animals received administration of vehicle or compound 1 h prior to surgery (pre) and 5 h following surgery (post).

[3] = test system: mechanical hyperalgesia in the Seltzer model of neuropathic pain in the rat; assay: Seltzer model, established neuropathic hyperalgesia, repeated administration of Compound A; conditions: 3 mg/kg orally twice daily for 10 days starting 7 days after ligation
Source text: as §1, §2, §3, §4
Inhibition of MMP7 may also reduce established mechanical hyperalgesia. 7 days following ligation ipsilateral paw withdrawal thresholds are reduced to approximately 65 g compared to contralteral readings of approximately 100 g, indicating mechanical hyperalgesia. Compound A (3 and 30 mg/kg) or vehicle (20% cremaphor/water) is then administered orally twice daily for 10 days. […]

CC[C@H](C(=O)NO)[C@H](C(=O)N1CCCC[C@H]1C(=O)NC(C)C)c1ccc(Cl)cc1 [Compound A, (S)-1-[(2S,3S)-2-(4-Chloro-phenyl)-3-hydroxycarbamoyl-pentanoyl]-piperidine-2-carboxylic acid isopropylamide]
ipsilateral withdrawal thresholds versus vehicle treated animals ([1]; 3 days after the end of compound administration): remain elevated above those of vehicle treated animals
withdrawal thresholds of contralateral paws ([1]; contralateral (non-ligated) paw, following surgery, vehicle or compound administration, throughout the experiment): do not significantly change
Paw withdrawal threshold ([1]; ipsilateral paw, 3 mg/kg orally twice daily for 7 days from day of surgery, day 1 of treatment): 72.5 ± 2.8 g
Paw withdrawal threshold ([1]; ipsilateral paw, 3 mg/kg orally twice daily for 7 days from day of surgery, day 2 of treatment): 76.7 ± 3.1 g
Paw withdrawal threshold ([1]; ipsilateral paw, 3 mg/kg orally twice daily for 7 days from day of surgery, day 3 of treatment): 78.3 ± 2.5 g
Paw withdrawal threshold ([1]; ipsilateral paw, 3 mg/kg orally twice daily for 7 days from day of surgery, day 4 of treatment): 83.3 ± 2.8 g
Paw withdrawal threshold ([1]; ipsilateral paw, 3 mg/kg orally twice daily for 7 days from day of surgery, day 5 of treatment): 83.3 ± 5.7 g
Paw withdrawal threshold ([1]; ipsilateral paw, 3 mg/kg orally twice daily for 7 days from day of surgery, day 7 of treatment): 86.7 ± 4.8 g
Paw withdrawal threshold ([1]; ipsilateral paw, 3 mg/kg orally twice daily for 7 days from day of surgery, day 10 (3 days after end of dosing)): 90.0 ± 4.7 g
Paw withdrawal threshold ([1]; ipsilateral paw, 3 mg/kg orally twice daily for 7 days from day of surgery, pre-surgery (baseline)): 100.8 ± 2.4 g
Paw withdrawal threshold ([1]; ipsilateral paw, 30 mg/kg orally twice daily for 7 days from day of surgery, day 1 of treatment): 78.3 ± 2.8 g
Paw withdrawal threshold ([1]; ipsilateral paw, 30 mg/kg orally twice daily for 7 days from day of surgery, day 2 of treatment): 80.8 ± 4.0 g
Paw withdrawal threshold ([1]; ipsilateral paw, 30 mg/kg orally twice daily for 7 days from day of surgery, day 3 of treatment): 83.3 ± 4.9 g
Paw withdrawal threshold ([1]; ipsilateral paw, 30 mg/kg orally twice daily for 7 days from day of surgery, day 4 of treatment): 85.8 ± 4.4 g
Paw withdrawal threshold ([1]; ipsilateral paw, 30 mg/kg orally twice daily for 7 days from day of surgery, day 5 of treatment): 83.2 ± 3.1 g
Paw withdrawal threshold ([1]; ipsilateral paw, 30 mg/kg orally twice daily for 7 days from day of surgery, day 7 of treatment): 82.0 ± 5.8 g
Paw withdrawal threshold ([1]; ipsilateral paw, 30 mg/kg orally twice daily for 7 days from day of surgery, day 10 (3 days after end of dosing)): 86.0 ± 4.0 g
Paw withdrawal threshold ([1]; ipsilateral paw, 30 mg/kg orally twice daily for 7 days from day of surgery, pre-surgery (baseline)): 97.5 ± 2.1 g
withdrawal thresholds after repeated dosing ([1]; ipsilateral paw, orally twice daily for 7 days from day of surgery, vehicle approximately 60 g): 80 to 90 g
duration of the effect of the two doses ([2]; 30 mg/kg oral 1 h prior to and 5 h following surgery): approximately 7 days
degree of hyperalgesia (ipsilateral paw withdrawal thresholds versus vehicle) ([2]; 30 mg/kg oral 1 h prior to surgery and again 5 h following surgery): significant reduction in the degree of hyperalgesia
Paw withdrawal threshold ([2]; Compound A 30 mg/kg oral 1 h pre surgery + Compound A 5 h post, day 1 of study): 79.2 ± 2.4 g
Paw withdrawal threshold ([2]; Compound A 30 mg/kg oral 1 h pre surgery + Compound A 5 h post, day 2 of study): 81.7 ± 2.1 g
Paw withdrawal threshold ([2]; Compound A 30 mg/kg oral 1 h pre surgery + Compound A 5 h post, day 3 of study): 80.0 ± 2.2 g
Paw withdrawal threshold ([2]; Compound A 30 mg/kg oral 1 h pre surgery + Compound A 5 h post, day 4 of study): 77.5 ± 1.1 g
Paw withdrawal threshold ([2]; Compound A 30 mg/kg oral 1 h pre surgery + Compound A 5 h post, day 6 of study): 73.3 ± 3.1 g
Paw withdrawal threshold ([2]; Compound A 30 mg/kg oral 1 h pre surgery + Compound A 5 h post, day 7 of study): 70.8 ± 2.4 g
Paw withdrawal threshold ([2]; Compound A 30 mg/kg oral 1 h pre surgery + Compound A 5 h post, pre-surgery (baseline)): 101.7 ± 1.1 g
Paw withdrawal threshold ([2]; Compound A 30 mg/kg oral 1 h pre surgery + vehicle 5 h post, day 1 of study): 75.8 ± 2.4 g
Paw withdrawal threshold ([2]; Compound A 30 mg/kg oral 1 h pre surgery + vehicle 5 h post, day 2 of study): 69.2 ± 3.7 g
Paw withdrawal threshold ([2]; Compound A 30 mg/kg oral 1 h pre surgery + vehicle 5 h post, day 3 of study): 70.8 ± 2.0 g
Paw withdrawal threshold ([2]; Compound A 30 mg/kg oral 1 h pre surgery + vehicle 5 h post, day 4 of study): 67.5 ± 1.7 g
Paw withdrawal threshold ([2]; Compound A 30 mg/kg oral 1 h pre surgery + vehicle 5 h post, day 6 of study): 70.0 ± 2.2 g
Paw withdrawal threshold ([2]; Compound A 30 mg/kg oral 1 h pre surgery + vehicle 5 h post, day 7 of study): 65.0 ± 3.2 g
Paw withdrawal threshold ([2]; Compound A 30 mg/kg oral 1 h pre surgery + vehicle 5 h post, pre-surgery (baseline)): 105.0 ± 1.3 g
inhibition of hyperalgesia ([2]; single dose 1 h prior to surgery): significant inhibition of hyperalgesia only at 1 day post surgery
ipsilateral paw withdrawal threshold ([3]; day 1 of study): 62.5 ± 2.1 g
ipsilateral paw withdrawal threshold ([3]; day 2 of study): 68.3 ± 1.1 g
